Test results reported in patent EP4711369A1, “1H-[1,2,3]TRIAZOLO[4,5-H]QUINAZOLINE COMPOUNDS AS PROTEIN KINASE INHIBITORS” (Chengdu Cynogen Bio-Pharmaceutical Technology Co., Ltd., priority 2023, dated 2024).

What was measured:
[1] = system: human acute myeloid leukemia MV-4-11 cells; assay: Assay of cell proliferation (CellTiter-Glo); assay type: cell-based; details: MV4-11, 144 h, 6 days, read-out: MV-4-11 IC50 of cell proliferation inhibitory activity
How it was run: (§1)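 Cells seeded per line at growth-adapted densities, treated 6 days at 37 °C/5% CO2 with nine 3-fold dilutions (10 µM to 0.1 nM final, 0.5% DMSO). Viability by CellTiter-Glo luminescence; IC50 from four-parameter fit.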

[2] = system: human colon cancer HCT-116 cells; assay: Assay of cell proliferation (CellTiter-Glo); assay type: cell-based; details: 144 h, 6 days, read-out: HCT-116 IC50 of cell proliferation inhibitory activity
How it was run: as §1

[3] = system: human breast cancer MCF-7 cells; assay: Assay of cell proliferation (CellTiter-Glo); assay type: cell-based; details: 144 h, MCF7 cells, 6 days, read-out: MCF7 IC50 of cell proliferation inhibitory activity
How it was run: as §1

[4] = system: human gastric cancer MKN1 cells; assay: Assay of cell proliferation (CellTiter-Glo); assay type: cell-based; details: Homo sapiens, MKN-1, 144 h; MNK1, 6 days; read-out: MKN1 IC50 of cell proliferation inhibitory activity
How it was run: as §1

[5] = system: human breast cancer HCC1806 cells; assay: Assay of cell proliferation (CellTiter-Glo); assay type: cell-based; details: Homo sapiens, 144 h, 6 days, read-out: HCC1806 IC50 of cell proliferation inhibitory activity
How it was run: as §1

[6] = system: Human gastric cancer MKN1 cells; assay: MKN1 tumor model; assay type: in vivo; details: female BALB/c nude mice, p.o. 10, 20 and 30 mg/kg once daily, 22 days, Fig. 4
Protocol: Human gastric cancer MKN1 cells were cultured in RPMI 1640 medium containing 10% FBS at 37 °C and 5% CO2 in an incubator. Matrigel was mixed with serum-free RPMI 1640 medium at a ratio of 1:1, and then the mixture was used to resuspend the MKN1 cancer cells at 1 × 10^7 / 0.1 ml. Then, the cells were inoculated subcutaneously into the right rib area of female BALB/c nude mice. When the volume of tumors reached approximately 100-150 mm^3, the mice were randomly divided into groups for treatment, with six animals per group. The compound was prepared in a 20% aqueous solution of hydroxypropyl-gamma-cyclodextrin containing an equivalent amount of hydrochloric acid, and administered by oral gavage (p.o.) at dosages of 10, 20, and 30 (mg/kg) once daily, for a total of 22 days. The untreated group was given solvent by oral gavage. The tumor volume was measured twice a week using a vernier caliper by measuring the long and short diameters of a tumor. The formula for calculating a tumor volume was: volume (mm^3) = (long diameter (mm) × short diameter (mm) × short diameter (mm)/2. The mice were weighed daily.
(§2) The therapeutic effect of a drug was evaluated using the tumor growth inhibition (TGI%).

[7] = system: Human ovarian cancer OVCAR-3 cells; assay: OVCAR-3 tumor model; assay type: in vivo; details: female NOD-SCID mice, p.o. 5, 10 and 15 mg/kg twice daily, 22 days, Fig. 3
Protocol: Human ovarian cancer OVCAR-3 cells were cultured in RPMI 1640 medium containing 20% FBS at 37 °C and 5% CO2 in an incubator. Matrigel was mixed with serum-free RPMI 1640 medium at a ratio of 1:1, and then the mixture was used to resuspend the OVCAR-3 cancer cells at 2 × 10^7 cells/0.2 ml. Then, the cells were inoculated subcutaneously into the right rib area of female NOD-SCID mice. When the volume of tumors reached approximately 100-150 mm^3, the mice were randomly divided into groups for treatment, with six animals per group. The compound of example I-10 was prepared in a 20% aqueous solution of hydroxypropyl-gamma-cyclodextrin containing an equivalent amount of hydrochloric acid, and administered by oral gavage (p.o.) at dosages of 5, 10, and 15 (mg/kg) twice daily, 8 hours apart, for a total of 22 days. The PF06873600 treatment group was used as a positive control, and the untreated group was given solvent by oral gavage. The tumor volume was measured twice a week using a vernier caliper by measuring the long and short diameters of a tumor. The formula for calculating a tumor volume was: volume (mm^3) = (long diameter (mm) × short diameter (mm) × short diameter (mm)/2. The mice were weighed daily.
as §2

[8] = system: Human ovarian cancer OVCAR3 cells; assay: Assay of cell proliferation (CellTiter-Glo); assay type: cell-based; details: Homo sapiens, OVCAR-3, 144 h, 6 days, read-out: OVCAR3 IC50 of cell proliferation inhibitory activity
How it was run: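 OVCAR3 cells, 2000/well in RPMI 1640 with 20% FBS, treated with nine 3-fold dilutions from 10 µM to 0.1 nM (0.5% DMSO) for 6 days at 37 °C. Viability by CellTiter-Glo luminescence; IC50 by four-parameter fit.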

IC50 [1]: 4 nM
IC50 [2]: 11 nM
IC50 [3]: 11 nM
IC50 [4]: 15 nM
IC50 [5]: 22 nM
IC50 [8]: 16 nM
Compound: CC(C)n1nnc2ccc3cnc(Nc4ccc(C(=O)N5CC[C@H](N(C)C)C5)cc4)nc3c21 [Example I-10, (S)-(3-(Dimethylamino)pyrrolidin-1-yl)(4-((1-isopropyl-1H-[1,2,3]triazolo[4,5-H]quinazolin-8-yl)amino)phenyl)metha none]
growth inhibitory effect on the MKN1 tumor model (TGI%) [6]: dose-dependent relationship
growth inhibitory effect on the OVCAR-3 tumor model (TGI%) [7]: dose-dependent relationship
